{"source": "patent US20220249643A1", "about": "“ANTI-NEOPLASTIC COMBINED PHARMACEUTICAL COMPOSITION AND APPLICATION THEREOF” (priority 2019, published 2022)", "key": {"[1]": {"system": "Plasmodium chabaudi", "procedure": "(III) Preparation of thin blood film and microscopic examination: about 1-1.5 μL of blood was collected from tails of mice and smeared on slides so that a long tongue-shaped thin blood film with a length of 2.5 cm was prepared and blow-dried with a blower. The blood film was infiltrated with methanol for 1 min, stained with 1× Giemsa stain for 30 min, rinsed with tap water and blow-dried. The infection rate of Plasmodium was observed by a 100× oil immersion objective. Changes of the infection rate of Plasmodium were observed.\n(V) Inoculation of tumor-bearing mice: 7 days after tumor was subcutaneously inoculated, each mouse was inoculated with 0.2 mL of Plasmodium, that is, 5×10^5 Plasmodium parasites.\n(III) Statistics of the infection rate of Plasmodium: the infection rate of Plasmodium was evaluated by a percentage of red blood cells infected with Plasmodium in mice, where the calculation formula was (the number of red blood cells infected with Plasmodium/a total number of red blood cells)×100%. Specific procedures were as follows: blood was taken from tail veins and smeared on a slide, fixed with methanol, and stained with Giemsa stain. The number of red blood cells infected with Plasmodium and the total number of red blood cells were observed under a microscope. The total number of red blood cells was about 1000."}, "[2]": {"system": "mouse Lewis lung carcinoma (LLC)", "type": "in vivo, C57BL/6 mice", "details": "vs Con"}, "[3]": {"system": "Plasmodium yoelii", "assay": "Infection rate of Plasmodium (parasitemia) in tumor-bearing mice, Plasmodium yoelii", "type": "in vivo"}, "[4]": {"type": "in vivo, C57BL/6 mice", "excerpt": "The effects of the chemotherapeutic agent and Plasmodium infection on the weight of tumor-bearing mice were observed."}, "[5]": {"system": "mouse Lewis lung carcinoma (LLC)", "type": "in vivo, C57BL/6 mice", "details": "for Significance, survival (intergroup comparison): vs Con"}, "[6]": {"details": "Example 5, CTX 20 mg/kg×3 ip day 6, 13, 20, Py day 7"}, "[7]": {"details": "Example 6, CTX 20 mg/kg×3 ip day 6, 13, 20, Pc day 7"}, "[8]": {"details": "Example 1, GEM 100 mg/kg ip on day 3"}, "[9]": {"details": "Example 1, GEM 100 mg/kg ip on day 6"}, "[10]": {"details": "Example 2, GEM divided 50 mg/kg ip day 6 and day 13"}, "[11]": {"details": "Example 2, GEM single dose 100 mg/kg ip day 6"}, "[12]": {"details": "Example 3, GEM 50 mg/kg ip day 6 and day 13, Py day 7"}, "[13]": {"details": "Example 4, GEM 50 mg/kg ip day 6 and day 13, Pc day 7"}}, "note": "“Also recorded” adds a separate entry of the source. Where two headings read alike, the source gives them in different places."}
{"compound": "O=P1(N(CCCl)CCCl)NCCCO1", "note": "(centres unmarked) [CTX, cyclophosphamide]", "values": [{"measurement": "effect on Plasmodium infection", "setting": "[1]; Example 6, CTX 20 mg/kg×3 ip", "value": "relatively small effect on Plasmodium chabaudi"}, {"measurement": "Significance, tumor growth (intergroup comparison)", "setting": "[2]; [6]", "value": "* (“*” represents p<0.05)"}, {"measurement": "Significance, tumor growth (intergroup comparison)", "setting": "[2]; [7]", "value": "* (“*” represents p<0.05)"}, {"measurement": "effect on Plasmodium infection", "setting": "[3]; Example 5, CTX 20 mg/kg×3 ip", "value": "relatively small effect on Plasmodium"}, {"measurement": "effect on weight of tumor-bearing mice", "setting": "[4]; Example 5, CTX 20 mg/kg×3 ip, Py day 7", "value": "affected little"}, {"measurement": "effect on weight of tumor-bearing mice", "setting": "[4]; Example 6, CTX 20 mg/kg×3 ip, Pc day 7", "value": "affected little"}, {"measurement": "median survival time", "setting": "[5]; [6]", "value": 37, "unit": "days"}, {"measurement": "Significance, survival (intergroup comparison)", "setting": "[5]; Example 5", "value": "** (“**” represents p<0.01)"}, {"measurement": "median survival time", "setting": "[5]; [7]", "value": 39.5, "unit": "days"}, {"measurement": "Significance, survival (intergroup comparison)", "setting": "[5]; Example 6", "value": "* (“*” represents p<0.05)"}]}
{"compound": "CO[C@@]12[C@H](COC(N)=O)C3=C(C(=O)C(C)=C(N)C3=O)N1C[C@@H]1N[C@@H]12", "note": "[mitomycin]", "values": [{"measurement": "effect on Plasmodium infection", "setting": "[3]; Example 9, MMC low, medium, high dosage, the higher concentration, the more obvious", "value": "certain inhibitory effect on Plasmodium"}, {"measurement": "effect on weight of tumor-bearing mice", "setting": "[4]; Example 9, three combined treatment groups", "value": "affected little"}]}
{"compound": "COc1cc([C@@H]2c3cc4c(cc3[C@@H](O[C@@H]3O[C@@H]5CO[C@@H](C)O[C@H]5[C@H](O)[C@H]3O)[C@H]3COC(=O)[C@H]23)OCO4)cc(OC)c1O", "note": "[etoposide]", "values": [{"measurement": "effect on Plasmodium infection", "setting": "[3]; Example 11, VP16 low and high dosage", "value": "obvious inhibitory effect on Plasmodium"}]}
{"compound": "Cc1c(O)cccc1C(=O)N[C@@H](CSc1ccccc1)[C@H](O)CN1C[C@H]2CCCC[C@H]2C[C@H]1C(=O)NC(C)(C)C", "note": "[NFV, nelfinavir]", "values": [{"measurement": "Significance, tumor growth (intergroup comparison)", "setting": "[2]; Example 12, NFV 400 mg/kg×10, intraperitoneal injection, from day 10, Py day 7", "value": "** (“**” represents p<0.01)"}, {"measurement": "effect on Plasmodium infection", "setting": "[3]; Example 12, NFV 400 mg/kg×10", "value": "relatively small effect on Plasmodium"}, {"measurement": "toxic and side effects on tumor-bearing mice", "setting": "[4]; Example 12, NFV 400 mg/kg×10", "value": "will not increase toxic and side effects on tumor-bearing mice"}, {"measurement": "effect on weight of tumor-bearing mice", "setting": "[4]; Example 12, continuous administration of nelfinavir alone", "value": "relatively small effect on the weight of tumor-bearing mice"}, {"measurement": "median survival time", "setting": "[5]; Example 12, NFV 400 mg/kg×10 from day 10, Py day 7", "value": 34, "unit": "days"}]}
{"compound": "CC(=O)O[C@@]12CO[C@@H]1C[C@H](O)[C@@]1(C)C(=O)[C@H](O)C3=C(C)[C@@H](OC(=O)[C@H](O)[C@@H](NC(=O)OC(C)(C)C)c4ccccc4)C[C@@](O)([C@@H](OC(=O)c4ccccc4)[C@H]21)C3(C)C", "note": "[docetaxel]", "values": [{"measurement": "effect on Plasmodium infection", "setting": "[3]; Example 10, DTX high dosage 2 mg/kg×3", "value": "significantly inhibit Plasmodium"}, {"measurement": "effect on Plasmodium infection", "setting": "[3]; Example 10, DTX low dosage 2.2 mg/kg×3", "value": "relatively small effect on Plasmodium"}, {"measurement": "effect on Plasmodium infection", "setting": "[3]; Example 10, DTX medium dosage 6.7 mg/kg×3", "value": "significantly inhibit Plasmodium"}, {"measurement": "effect on weight of tumor-bearing mice", "setting": "[4]; Example 10, in the combined therapy, DTX high dosage", "value": "very significant effect in reducing the weight of the tumor-bearing mice"}, {"measurement": "effect on weight of tumor-bearing mice", "setting": "[4]; Example 10, in the combined therapy, DTX low dosage", "value": "relatively small effects"}, {"measurement": "effect on weight of tumor-bearing mice", "setting": "[4]; Example 10, in the combined therapy, DTX medium dosage", "value": "relatively small effects"}]}
{"compound": "[NH2][Pt]([NH2])([Cl])[Cl]", "note": "[DDP, cis-platinum]", "values": [{"measurement": "Significance, tumor growth (intergroup comparison)", "setting": "[2]; Example 8, DDP 1 mg/kg×7 ip every two days from day 7, Py day 7", "value": "** (“**” represents p<0.01)"}, {"measurement": "effect on Plasmodium infection (parasitemia)", "setting": "[3]; Example 8, DDP 1 mg/kg×7 ip, vs single Plasmodium yoelii group", "value": "inhibitory effect on Plasmodium"}, {"measurement": "median survival time", "setting": "[5]; Example 8, DDP 1 mg/kg×7 ip, Py day 7", "value": 30, "unit": "days"}]}
{"compound": "Nc1nc2[nH]cc(CCc3ccc(C(=O)N[C@@H](CCC(=O)O)C(=O)O)cc3)c2c(=O)[nH]1", "note": "[PEM, pemetrexed]", "values": [{"measurement": "Significance, tumor growth (intergroup comparison)", "setting": "[2]; Example 7, PEM 20 mg/kg×6 ip day 3, 7, 10, 14, 17, 21, Py day 7", "value": "** (“**” represents p<0.01)"}, {"measurement": "effect on Plasmodium infection", "setting": "[3]; Example 7, PEM 20 mg/kg×6 ip", "value": "relatively small effect on Plasmodium; also recorded: no inhibitory effect on Plasmodium yoelii"}, {"measurement": "median survival time", "setting": "[5]; Example 7, PEM 20 mg/kg×6 ip, Py day 7", "value": 32.5, "unit": "days"}]}
{"compound": "Nc1ccn([C@@H]2O[C@H](CO)[C@@H](O)C2(F)F)c(=O)n1", "note": "[GEM, gemcitabine]", "values": [{"measurement": "effect on Plasmodium infection", "setting": "[1]; Example 4, GEM 50 mg/kg ip day 6 and day 13", "value": "inhibitory effect on Plasmodium chabaudi but will not eliminate Plasmodium"}, {"measurement": "Significance, tumor growth (intergroup comparison)", "setting": "[2]; [8]", "value": "** (“**” represents p<0.01)"}, {"measurement": "Significance, tumor growth (intergroup comparison)", "setting": "[2]; [9]", "value": "** (“**” represents p<0.01)"}, {"measurement": "Significance, tumor growth (intergroup comparison)", "setting": "[2]; [10]", "value": "** (“**” represents p<0.01)"}, {"measurement": "Significance, tumor growth (intergroup comparison)", "setting": "[2]; [11]", "value": "** (“**” represents p<0.01)"}, {"measurement": "Significance, tumor growth (intergroup comparison)", "setting": "[2]; [12]", "value": "** (“**” represents p<0.01)"}, {"measurement": "Significance, tumor growth (intergroup comparison)", "setting": "[2]; [13]", "value": "** (“**” represents p<0.01)"}, {"measurement": "effect on Plasmodium infection", "setting": "[3]; Example 1, GEM 100 mg/kg ip day 3 or day 6", "value": "certain inhibitory effect on Plasmodium yoelii but will not eliminate Plasmodium"}, {"measurement": "effect on Plasmodium infection", "setting": "[3]; Example 2, GEM single dose or divided doses, total 100 mg/kg", "value": "certain inhibitory effect on Plasmodium"}, {"measurement": "effect on Plasmodium infection", "setting": "[3]; Example 3, GEM 50 mg/kg ip day 6 and day 13", "value": "certain inhibitory effect on Plasmodium yoelii but will not eliminate Plasmodium yoelii"}, {"measurement": "effect on weight of tumor-bearing mice", "setting": "[4]; Example 1, GEM 100 mg/kg ip, Py day 7", "value": "affected little"}, {"measurement": "effect on weight of tumor-bearing mice", "setting": "[4]; Example 2, GEM total 100 mg/kg ip, Py day 7", "value": "affected little"}, {"measurement": "effect on weight of tumor-bearing mice", "setting": "[4]; [12]", "value": "affected little"}, {"measurement": "effect on weight of tumor-bearing mice", "setting": "[4]; [13]", "value": "affected little"}, {"measurement": "median survival time", "setting": "[5]; [8]", "value": 34.5, "unit": "days"}, {"measurement": "median survival time", "setting": "[5]; [9]", "value": 33, "unit": "days"}, {"measurement": "Significance, survival (intergroup comparison)", "setting": "[5]; [8]", "value": "* (“*” represents p<0.05)"}, {"measurement": "Significance, survival (intergroup comparison)", "setting": "[5]; [9]", "value": "** (“**” represents p<0.01)"}, {"measurement": "median survival time", "setting": "[5]; [10]", "value": 38.5, "unit": "days"}, {"measurement": "median survival time", "setting": "[5]; [11]", "value": 33, "unit": "days"}, {"measurement": "median survival time", "setting": "[5]; [12]", "value": 36, "unit": "days"}, {"measurement": "Significance, survival (intergroup comparison)", "setting": "[5]; [12]", "value": "** (“**” represents p<0.01)"}, {"measurement": "median survival time", "setting": "[5]; [13]", "value": 35, "unit": "days"}]}
